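Briefly, cells in 96-well plates were exposed to five compound concentrations for 48 h, and endpoints were estimated by linear interpolation. GI50 is the concentration that inhibits growth by half. Definition used: TGI = concentration required for complete inhibition of growth.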 Where a SMILES comes first, the peptide text is derived from it. Bridges are numbered along the chain shown (N, C = ends). Roman numbers before positions name the chains, in order. [ ]: non-standard residue; d: D form. The star is where a group is joined. Quinoxaline2carbonyl = O=C(c1cnc2ccccc2n1)*; NMeV = CN[CH](C(=O)O)C(C)C; NMeC = CN[CH](CS)C(=O)O
What was measured:
Experiment in all cases: growth of human tumour cells (NCI), 48 h
RPMI-8226 leukemia = tested on: RPMI-8226 leukemia
BT-549 breast = tested on: BT-549 breast
M14 melanoma = tested on: M14 melanoma
NCI-H522 lung = tested on: NCI-H522 lung
HCC-2998 colon = tested on: HCC-2998 colon
HL-60(TB) leukemia = tested on: HL-60(TB) leukemia
HOP-62 NSCLC = tested on: HOP-62 NSCLC
786-0 renal = tested on: 786-0 renal
DMS 114 small cell lung = tested on: DMS 114 small cell lung
DLD-1 colon = tested on: DLD-1 colon

Row | Compound | TGI (RPMI-8226 leukemia) [µM] | TGI (BT-549 breast) [µM] | TGI (M14 melanoma) [µM] | TGI (NCI-H522 lung) [µM] | TGI (HCC-2998 colon) [µM] | TGI (HL-60(TB) leukemia) [µM] | TGI (HOP-62 NSCLC) [µM] | TGI (786-0 renal) [µM] | TGI (DMS 114 small cell lung) [µM] | TGI (DLD-1 colon) [µM] | GI50 (RPMI-8226 leukemia) [µM] | GI50 (BT-549 breast) [µM] | GI50 (M14 melanoma) [µM] | GI50 (NCI-H522 lung) [µM] | GI50 (HCC-2998 colon) [µM] | GI50 (HL-60(TB) leukemia) [µM] | GI50 (HOP-62 NSCLC) [µM] | GI50 (786-0 renal) [µM]
1 | N#Cc1c(N)[nH]c2ccc(Sc3ccccc3)cc12 | 8.65 | 19.5 | 3.5 | 3.21 | 17.3 | 1.92 | 20.5 | 8.1 |  |  |  |  |  |  |  |  |  | 
2 | O=P1(Oc2ccccc2)C(c2ccccc2)C(c2ccccc2)=NN1c1ccccc1 (stereo not drawn) |  |  | 39.6 | 36.4 | 89.8 | 47 | 71.3 | > 100 | 43.8 | 34.3 |  |  |  |  |  |  |  | 
3 | C[CH2][Pb]([CH2]C)([CH2]C)[O]C(=O)c1ccc2ccccc2n1 | > 10 | > 10 | > 10 | > 10 | > 10 | > 10 | > 10 | > 10 |  |  | > 10 | > 10 | > 10 | > 10 | > 10 | > 10 | > 10 | > 10
4 | COc1ccc2cc(-c3c(-c4ccncc4)nc(-c4ccc(S(C)=O)cc4)n3C)ccc2c1 (stereo not drawn) | > 25 | > 25 | > 25 | > 25 | > 25 | > 25 | > 25 | > 25 |  |  | 17 | 21.1 | > 25 | > 18.5 | 25 | 18.3 | > 21.1 | 16.7
5 | CC1(C)CCC[C@]2(C)[C@@H](C=O)C(C=O)=CC[C@@H]12 | 31.4 | 74.2 | 33.7 | 37.4 | 32.7 | 36.5 | > 100 | > 100 |  |  |  |  |  |  |  |  |  | 
6 | COC(CN1C=C(Sc2ccccc2)CC1)OC | 50.7 |  | > 100 |  | > 100 | 34 | > 100 | > 100 | 65.4 | > 100 |  |  |  |  |  |  |  | 
7 | Nc1ccccc1SCc1csc(-c2ccc(Cl)cc2)n1 | 44.7 | 72.1 | 41.7 | 31.1 | 47.1 | 23.9 | > 90.6 | 47.5 |  |  |  |  |  |  |  |  |  | 
8 | CC(=O)c1c(C(F)(F)F)n([O-])c2ccc(C)cc2[n+]1=O | 4.04 | 8.66 | 8.88 | > 24.2 | 8.53 | 10.5 | 21.9 | 4.7 |  |  | 0.686 | 2.54 | 2.41 | 3 | 1.89 | 1.92 | 3.64 | 1.47
9 | CN1CCC(n2cnc(-c3ccc(F)cc3)c2-c2ccnc(N)n2)CC1 | > 25 | > 25 | > 25 | > 25 | > 25 | > 25 | > 25 | > 25 |  |  | 16.6 | 15.3 | 11.7 | 8.57 | 8.98 | > 25 | 9.44 | 11.6
10 | Cn1cncc1CC1COC(=O)C1C(O)c1ccccc1 (stereo not drawn) | > 100 | > 100 | > 100 | > 100 | > 100 | > 100 | > 100 | > 100 |  |  |  |  |  |  |  |  |  | 
11 | COCCOCOc1ccc(OCOCCOC)c2c1C(=O)c1ccccc1C2=O |  |  | > 100 |  | > 100 | > 100 | > 100 | > 100 | 37.3 | > 100 |  |  |  |  |  |  |  | 
12 | Cc1cc2c(c(C(=O)O)c1C)-c1cccc(F)c1C2=O | > 100 |  | > 100 | > 100 | > 100 |  | > 100 | > 100 | > 100 | > 100 |  |  |  |  |  |  |  | 
13 | CC1NC(=O)C(NC(=O)c2cnc3ccccc3n2)COC(=O)C(C(C)C)N(C)C(=O)C2CSSCC(C(=O)N(C)C(C(C)C)C(=O)OCC(NC(=O)c3cnc4ccccc4n3)C(=O)NC(C)C(=O)N2C)N(C)C1=O (stereo not drawn) (I: Quinoxaline2carbonyl-SA[NMeC][NMeV] / II: Quinoxaline2carbonyl-SA[NMeC][NMeV]; ester I:1-II:C, I:C-II:1; disulfide I:3-II:3; configuration not given here) | < 0.01 | < 0.01 | < 0.01 | < 0.01 | < 0.01 | < 0.01 | 2.27 | 2.27 |  |  |  |  |  |  |  |  |  | 
14 | Cn1cc(-c2nonc2-c2cn(C)c3ccccc23)c2ccccc21 | > 100 | > 100 | > 100 | > 100 | > 100 | 1.72 | > 72.7 | > 100 |  |  | 0.967 | 1.37 | 0.469 | 0.402 | 3.07 | 0.483 | 1.25 | 1.63
15 | O=[N+]([O-])c1cc(S(=O)(=O)Oc2ccccc2)ccc1Cl | 8.29 | 17 | 4.28 | 3.62 | 3.33 | 6.84 | 19.2 | 15.5 |  |  | 3.33 | 5.43 | 2.06 | 1.99 | 1.74 | 1.92 | 6.06 | 4.65
16 | CCC1(O)C(=O)OCc2c1cc1n(c2=O)Cc2cc3cc(N)ccc3nc2-1 (stereo not drawn) | 4.94 | 0.0931 | 0.153 | 0.27 | 1.37 | 0.0145 | 0.357 | 0.0469 |  |  |  |  |  |  |  |  |  | 
17 | CN(CC(N)=O)C(=O)N(CCCl)N=O | > 100 | > 100 | > 100 | > 100 | > 100 | > 100 | > 100 | > 100 |  |  |  |  |  |  |  |  |  | 
18 | O=C(NC1CCCC1=O)c1ccccc1 (stereo not drawn) |  |  | > 100 |  |  | > 100 | > 100 | > 100 | > 100 | > 100 |  |  |  |  |  |  |  | 
19 | CC(C)(C)CN1CCn2c(nc3c(N)nccc32)S1 | > 100 | 66.1 | 24.9 | 31.6 | 34.8 | 25.7 | > 100 | > 100 |  |  | 36.1 | 19.1 | 5.68 | 13.5 | 13.7 | 4.77 | 17 | 21
20 | COc1cc2nc(NCCCCCNC(=O)c3ccco3)nc(N)c2cc1OC | > 100 |  | 34.8 | 96.4 | 38.2 | 43.3 | 61.3 | 49 | 40.6 |  |  |  |  |  |  |  |  | 

Reference: PubChem BioAssay (NCI)
